Experimental data from patent US7192931B2, “Treatment of demyelinating diseases” (Neuren Pharmaceuticals Ltd., priority 2000, dated 2007).

How the values were obtained:
Format in all cases: in vivo, mouse
GluR2 = GluR2 subunit expression in spinal cord; details: spinal cord of EAE mice, immunohistochemistry and Western blot
[1] = test system: C57Bl/6 mice with MOG35-55 peptide-induced EAE; experiment: Neuropathology scoring of spinal cord sections (pathology status scale); details: for Pathology status scale: Oligodendrocytes** / Pathology status scale: Remyelination**: reverse scores; for Pathology status scale: Axonal damage / Pathology status scale: Demyelination / Pathology status scale: Inflammation: scored 0 to 5
Procedure: (§1) C57Bl/6 mice (8–10 week old) were injected subcutaneously in one flank with 300 μg of MOG35-55 peptide ([…]: SEQ ID NO:1) synthesized by Mimotapes Pty Ltd, Clayton, Australia and emulsified in CFA containing 500 μg of Mycobacterium tuberculosis H37Ra (DIFCO Laboratories, Detrit, USA). They also received 500 ng of pertussis toxin (List Biological Laboratories, CA, USA) in 200 μl PBS intravenously via the tail vein, followed 48 hours later by a second dose. A second injection of MOG peptide was given in the absence of pertussis toxin one week later in the opposite flank, as described previously (Kanwar et al., 2000b).
(§2) Two treatment protocols were employed, involving the treatment of early disease, versus advanced disease. For early disease, reagents were administered at day 35 (following MOG injection). Antibody was administered thrice on alternate days, whereas neuroprotectors were given daily for 6 days, where 50% of reagent was given ip and 50% iv. In the treatment of advanced disease, therapy as above was initiated at day 60, with either three or eight anti-MAdCAM-1 mAb injections, and neuroprotectors given daily for either 7 or 18 days.
Mice were perfused through the left cardiac ventricle with ice-cold PBS or glutaraldehyde, and the CNS including brain and spinal cord were prepared for frozen or epoxy sections, respectively. Thin slices were taken at all levels of the CNS including spinal cord (cervical, midthoracic, T11, T12/13, upper lumbar, L6, L7 and sacral) and sacral roots. One-μm thick epoxy sections taken from different levels of the spinal cord were stained with toluidine blue, and examined by light microscopy by an investigator blinded to the sample identity. Multiple sections from the spinal cord were scored from 0 to 5 for inflammation, demyelination, remyelination, and axonal necrosis or damage, using a previously published scoring system (Moore et al., 2000).

[2] = test system: C57Bl/6 mice with MOG35-55 peptide-induced EAE; experiment: Expanded disability status scale for EAE treated mice; details: for Maximal disability score: Alertness / Maximal disability score: Bladder function / Maximal disability score: Eye movements / Maximal disability score: Motor (grip)* / Maximal disability score: Other signs (shine hairs and loose skin) / Maximal disability score: Sensory* Light touch / Maximal disability score: Sensory* Pain / Maximal disability score: Spontaneous mobility / Maximal disability score: Tone* / Maximal disability score: Tremor / Maximal disability score: Vision (including pupillary reflex) / Total expanded disability scale: mean values
Procedure: as §1, §2
The mice were monitored daily and scored according to the following scale: 0, no clinical signs of EAE; 1, limp tail; 2, partial hind limb paralysis; 3, complete hind limb paralysis; 4, complete hind limb and partial fore limb paralysis; 5, paralysis extending to diaphragm; 6, hind and fore limb paralysis; 7, death due to EAE. Paralysis extending to the diaphragm was denoted as difficulty in remaining upright. […] The daily mean clinical score for each group is the mean disease score of at least five mice. The body weight of animals was measured regularly throughout the experiments. The expanded disability status scale for EAE treated mice was scored using an earlier published scoring system (Villoslada et al. 2000).

NS(=O)(=O)c1cccc2c1c([N+](=O)[O-])cc1nc(O)c(O)nc12 [NBQX, 2,3-dihydroxy-6-nitro-7-sulfamoylbenzo(f)quinoxaline]
GluR2 expression (GluR2): downregulates the AMPA receptor | Pathology status scale: Apoptosis ([1]; day 45): 2 | Pathology status scale: Oligodendrocytes** ([1]; day 45): 2 | Pathology status scale: Remyelination** ([1]; day 45): 3 | Pathology status scale: Axonal damage ([1]; day 45): 2 | Pathology status scale: Demyelination ([1]; day 45): 2 | Pathology status scale: Inflammation ([1]; day 45): 3 | Pathology status scale: Apoptosis ([1]; day 60): 3 | Pathology status scale: Oligodendrocytes** ([1]; day 60): 3 | Pathology status scale: Remyelination** ([1]; day 60): 2 | Pathology status scale: Axonal damage ([1]; day 60): 3 | Pathology status scale: Demyelination ([1]; day 60): 3 | Pathology status scale: Inflammation ([1]; day 60): 3 | Pathology status scale: Apoptosis ([1]; day 65): 2 | Pathology status scale: Oligodendrocytes** ([1]; day 65): 2 | Pathology status scale: Remyelination** ([1]; day 65): 2 | Pathology status scale: Axonal damage ([1]; day 65): 1 | Pathology status scale: Demyelination ([1]; day 65): 2 | Pathology status scale: Inflammation ([1]; day 65): 2 | Pathology status scale: Apoptosis ([1]; day 70): 1 | Pathology status scale: Oligodendrocytes** ([1]; day 70): 1 | Pathology status scale: Remyelination** ([1]; day 70): 2 | Pathology status scale: Axonal damage ([1]; day 70): 1 | Pathology status scale: Demyelination ([1]; day 70): 1 | Pathology status scale: Inflammation ([1]; day 70): 2 | Pathology status scale: Apoptosis ([1]; day 119): 2 | Pathology status scale: Oligodendrocytes** ([1]; day 119): 2 | Pathology status scale: Remyelination** ([1]; day 119): 1 | Pathology status scale: Axonal damage ([1]; day 119): 2 | Pathology status scale: Demyelination ([1]; day 119): 2 | Pathology status scale: Inflammation ([1]; day 119): 1 | Total scores After treatment (pathology status scale) ([1]; sum over the six pathology parameters after treatment): 46 | cumulative scores for inflammation, demyelination, remyelination, apoptosis, oligodendrocyte loss, and axonal damage following treatment ([1]; text statement of Table 2 totals): 46 | total scores (disability scale) ([2]; at day 70 as printed, 35 for rat IgG treated control mice): 30 | Maximal disability score: Alertness ([2]; day 55 after immunization): 2 | Maximal disability score: Bladder function ([2]; day 55 after immunization): 0 | Maximal disability score: Eye movements ([2]; day 55 after immunization): 1 | Maximal disability score: Motor (grip)* ([2]; day 55 after immunization): 12 | Maximal disability score: Other signs (shine hairs and loose skin) ([2]; day 55 after immunization): 3 | Maximal disability score: Sensory* Light touch ([2]; day 55 after immunization): 8 | Maximal disability score: Sensory* Pain ([2]; day 55 after immunization): 8 | Maximal disability score: Spontaneous mobility ([2]; day 55 after immunization): 3 | Maximal disability score: Tone* ([2]; day 55 after immunization): 12 | Maximal disability score: Tremor ([2]; day 55 after immunization): 2 | Maximal disability score: Vision (including pupillary reflex) ([2]; day 55 after immunization): 1 | Total expanded disability scale ([2]; day 55 after immunization): 53 | Maximal disability score: Alertness ([2]; day 60 after immunization): 2 | Maximal disability score: Bladder function ([2]; day 60 after immunization): 1 | Maximal disability score: Eye movements ([2]; day 60 after immunization): 1 | Maximal disability score: Motor (grip)* ([2]; day 60 after immunization): 12 | Maximal disability score: Other signs (shine hairs and loose skin) ([2]; day 60 after immunization): 2 | Maximal disability score: Sensory* Light touch ([2]; day 60 after immunization): 8 | Maximal disability score: Sensory* Pain ([2]; day 60 after immunization): 8 | Maximal disability score: Spontaneous mobility ([2]; day 60 after immunization): 3 | Maximal disability score: Tone* ([2]; day 60 after immunization): 12 | Maximal disability score: Tremor ([2]; day 60 after immunization): 2 | Maximal disability score: Vision (including pupillary reflex) ([2]; day 60 after immunization): 1 | Total expanded disability scale ([2]; day 60 after immunization): 53 | Maximal disability score: Alertness ([2]; day 65 after immunization): 1 | Maximal disability score: Bladder function ([2]; day 65 after immunization): 0 | Maximal disability score: Eye movements ([2]; day 65 after immunization): 0 | Maximal disability score: Motor (grip)* ([2]; day 65 after immunization): 4 | Maximal disability score: Other signs (shine hairs and loose skin) ([2]; day 65 after immunization): 0 | Maximal disability score: Sensory* Light touch ([2]; day 65 after immunization): 0 | Maximal disability score: Sensory* Pain ([2]; day 65 after immunization): 0 | Maximal disability score: Spontaneous mobility ([2]; day 65 after immunization): 2 | Maximal disability score: Tone* ([2]; day 65 after immunization): 8 | Maximal disability score: Tremor ([2]; day 65 after immunization): 0 | Maximal disability score: Vision (including pupillary reflex) ([2]; day 65 after immunization): 0 | Total expanded disability scale ([2]; day 65 after immunization): 15 | Maximal disability score: Alertness ([2]; day 70 after immunization): 1 | Maximal disability score: Bladder function ([2]; day 70 after immunization): 0 | Maximal disability score: Eye movements ([2]; day 70 after immunization): 1 | Maximal disability score: Motor (grip)* ([2]; day 70 after immunization): 4 | Maximal disability score: Other signs (shine hairs and loose skin) ([2]; day 70 after immunization): 0 | Maximal disability score: Sensory* Light touch ([2]; day 70 after immunization): 0 | Maximal disability score: Sensory* Pain ([2]; day 70 after immunization): 0 | Maximal disability score: Spontaneous mobility ([2]; day 70 after immunization): 3 | Maximal disability score: Tone* ([2]; day 70 after immunization): 4 | Maximal disability score: Tremor ([2]; day 70 after immunization): 0 | Maximal disability score: Vision (including pupillary reflex) ([2]; day 70 after immunization): 0 | Total expanded disability scale ([2]; day 70 after immunization): 13 | Maximal disability score: Alertness ([2]; day 75 after immunization): 1 | Maximal disability score: Bladder function ([2]; day 75 after immunization): 1 | Maximal disability score: Eye movements ([2]; day 75 after immunization): 0 | Maximal disability score: Motor (grip)* ([2]; day 75 after immunization): 8 | Maximal disability score: Other signs (shine hairs and loose skin) ([2]; day 75 after immunization): 0 | Maximal disability score: Sensory* Light touch ([2]; day 75 after immunization): 4 | Maximal disability score: Sensory* Pain ([2]; day 75 after immunization): 8 | Maximal disability score: Spontaneous mobility ([2]; day 75 after immunization): 3 | Maximal disability score: Tone* ([2]; day 75 after immunization): 4 | Maximal disability score: Tremor ([2]; day 75 after immunization): 0 | Maximal disability score: Vision (including pupillary reflex) ([2]; day 75 after immunization): 1 | Total expanded disability scale ([2]; day 75 after immunization): 30 | Maximal disability score: Alertness ([2]; day 119 after immunization): 1 | Maximal disability score: Bladder function ([2]; day 119 after immunization): 0 | Maximal disability score: Eye movements ([2]; day 119 after immunization): 1 | Maximal disability score: Motor (grip)* ([2]; day 119 after immunization): 4 | Maximal disability score: Other signs (shine hairs and loose skin) ([2]; day 119 after immunization): 2 | Maximal disability score: Sensory* Light touch ([2]; day 119 after immunization): 4 | Maximal disability score: Sensory* Pain ([2]; day 119 after immunization): 4 | Maximal disability score: Spontaneous mobility ([2]; day 119 after immunization): 2 | Maximal disability score: Tone* ([2]; day 119 after immunization): 4 | Maximal disability score: Tremor ([2]; day 119 after immunization): 1 | Maximal disability score: Vision (including pupillary reflex) ([2]; day 119 after immunization): 0 | Total expanded disability scale ([2]; day 119 after immunization): 23
